The text below walks through data of ChEMBL document CHEMBL5357027, “Annonaceous Acetogenins Synergistically Inhibit Hepatocellular Carcinoma with Sorafenib” (J Nat Prod, 2024).

Active and inactive are the calls of the source. No cut-off for these calls is given here.

Assay [1] deals with MHCC97H. Nature of the assay: Cytotoxicity against human MHCC97H cells assessed as cell growth inhibition incubated for 48 hrs by MTT assay. In kind it is functional, cell-based.
The test system of assay [2] is HepG2. Nature of the assay: Synergistic cytotoxicity against human HepG2 cells assessed as cell growth inhibition by measuring synergy score at 1 to 16 uM incubated for 48 hrs in presence of sorafenib at 1 to 16 uM by MTT assay. In kind it is functional. Particulars: dose 1-16 µM. On the technique in general: Tetrazolium assays rely on reduction of a dye to a coloured formazan, in cell work by metabolically active cells.

The subject of assay [3] is Huh-7. Nature of the assay: Synergistic cytotoxicity against human Huh-7 cells assessed as cell growth inhibition by measuring synergy score at 1 to 16 uM incubated for 48 hrs in presence of sorafenib at 1 to 16 uM by MTT assay. Particulars: dose 1-16 µM. In kind it is functional.
The test system of assay [4] is Huh-7. Nature of the assay: Cytotoxicity against human Huh-7 cells assessed as cell growth inhibition incubated for 48 hrs by MTT assay. It is filed as functional, cell-based. The settings on record: Huh-7, 48 h.
Assay [5] concerns HCCLM3. Nature of the assay: Synergistic cytotoxicity against human HCCLM3 cells assessed as cell growth inhibition by measuring synergy score at 1 to 16 uM incubated for 48 hrs in presence of sorafenib at 1 to 16 uM by MTT assay. It is filed as functional. Particulars: dose 1-16 µM.
Assay [6] concerns HCCLM3. Nature of the assay: Cytotoxicity against human HCCLM3 cells assessed as cell growth inhibition incubated for 48 hrs by MTT assay. In kind it is functional, cell-based. The settings on record: HCCLM3, 48 h.
Assay [7] relates to HepG2. Nature of the assay: Cytotoxicity against human HepG2 cells assessed as cell growth inhibition incubated for 48 hrs by MTT assay. In kind it is functional, cell-based. Particulars: HepG2, 48 h.
The test system of assay [8] is MHCC97H. Nature of the assay: Synergistic cytotoxicity against human MHCC97H cells assessed as cell growth inhibition by measuring synergy score at 1 to 16 uM incubated for 48 hrs in presence of sorafenib at 1 to 16 uM by MTT assay. In kind it is functional. Particulars: dose 1-16 µM.
The subject of assay [9] is HCCLM3. Nature of the assay: Inhibition of mitochondrial respiratory chain complex I in human HCCLM3 incubated for 24 hrs. It is filed as cell-based.
For assay [10], the system named is HCCLM3. Nature of the assay: Induction of apoptosis in human HCCLM3 cells assessed as early apoptotic cells at 4 uM incubated for 48 hrs in presence of 4uM sorafenib by Annexin V/FITC-PI staining based flow cytometry (reference value: 0.05%). It is filed as functional. On the technique in general: Flow cytometry measures light scatter and fluorescence of single cells or particles in a stream.

In assay [11] the test system is HCCLM3. Nature of the assay: Induction of apoptosis in human HCCLM3 cells assessed as viable cells at 4 uM incubated for 48 hrs by Annexin V/FITC-PI staining based flow cytometry (reference value: 96.55%). In kind it is functional. Particulars: read-out: Activity.
For assay [12], the system named is HCCLM3. Nature of the assay: Induction of apoptosis in human HCCLM3 cells assessed as necrotic cells at 4 uM incubated for 48 hrs by Annexin V/FITC-PI staining based flow cytometry (reference value: 3.33%). It is filed as functional.
The test system of assay [13] is MHCC97H. Nature of the assay: Synergistic inhibition of mitochondrial function in human MHCC97H cells assessed as reduction in intracellular ATP level at 8 uM incubated for 48 hrs in presence of 16 uM sorafenib. In kind it is functional, cell-based.
The test system of assay [14] is HCCLM3. Nature of the assay: Induction of apoptosis in human HCCLM3 cells assessed as late apoptotic cells at 4 uM incubated for 48 hrs in presence of 4uM sorafenib by Annexin V/FITC-PI staining based flow cytometry (reference value: 0.07%). In kind it is functional.
The subject of assay [15] is HepG2. Nature of the assay: Synergistic inhibition of mitochondrial function in human HepG2 cells assessed as reduction in intracellular ATP level at 8 uM incubated for 48 hrs in presence of 16 uM sorafenib. It is filed as functional, cell-based.
Assay [16] relates to HCCLM3. Nature of the assay: Induction of apoptosis in human HCCLM3 cells assessed as early apoptotic cells at 4 uM incubated for 48 hrs by Annexin V/FITC-PI staining based flow cytometry (reference value: 0.05%). In kind it is functional.
The subject of assay [17] is HCCLM3. Nature of the assay: Induction of apoptosis in human HCCLM3 cells assessed as apoptotic ratio at 4 uM incubated for 48 hrs in presence of 4uM sorafenib by Annexin V/FITC-PI staining based flow cytometry relative to control. It is filed as functional.
The test system of assay [18] is MHCC97H. Nature of the assay: Inhibition of mitochondrial function in human MHCC97H cells assessed as reduction in ATP production at 8 uM incubated for 48 hrs. In kind it is functional, cell-based.
Assay [19] relates to HepG2. Nature of the assay: Inhibition of mitochondrial function in human HepG2 cells assessed as reduction in ATP production at 8 uM incubated for 48 hrs. It is filed as functional, cell-based.
Assay [20] relates to HCCLM3. Nature of the assay: Synergistic inhibition of mitochondrial function in human HCCLM3 cells assessed as reduction in intracellular ATP level at 8 uM incubated for 48 hrs in presence of 16 uM sorafenib. In kind it is functional, cell-based.
Assay [21] relates to Huh-7. Nature of the assay: Inhibition of mitochondrial function in human Huh-7 cells assessed as reduction in ATP production at 8 uM incubated for 48 hrs. In kind it is functional, cell-based.
Assay [22] deals with HCCLM3. Nature of the assay: Induction of apoptosis in human HCCLM3 cells assessed as viable cells at 4 uM incubated for 48 hrs in presence of 4uM sorafenib by Annexin V/FITC-PI staining based flow cytometry (reference value: 96.55%). In kind it is functional. Particulars: read-out: Activity.
Assay [23] concerns Huh-7. Nature of the assay: Synergistic inhibition of mitochondrial function in human Huh-7 cells assessed as reduction in intracellular ATP level at 8 uM incubated for 48 hrs in presence of 16 uM sorafenib. In kind it is functional, cell-based.
The subject of assay [24] is HCCLM3. Nature of the assay: Inhibition of mitochondrial function in human HCCLM3 cells assessed as reduction in ATP production at 8 uM incubated for 48 hrs. In kind it is functional, cell-based.
The test system of assay [25] is HCCLM3. Nature of the assay: Induction of apoptosis in human HCCLM3 cells assessed as necrotic cells at 4 uM incubated for 48 hrs in presence of 4uM sorafenib by Annexin V/FITC-PI staining based flow cytometry (reference value: 3.33%). It is filed as functional.
Assay [26] relates to HCCLM3. Nature of the assay: Induction of apoptosis in human HCCLM3 cells assessed as late apoptotic cells at 4 uM incubated for 48 hrs by Annexin V/FITC-PI staining based flow cytometry (reference value: 0.07%). It is filed as functional.
Assay [27] concerns HepG2. Nature of the assay: Inhibition of mitochondrial function in human HepG2 cells assessed as reduction in ATP production at 16 uM incubated for 48 hrs relative to control. It is filed as functional. Also on record: scale not given: the % may be the effect or the level left.
Assay [28] has as its system HCCLM3. Nature of the assay: Inhibition of mitochondrial function in human HCCLM3 cells assessed as reduction in ATP production at 16 uM incubated for 48 hrs relative to control. In kind it is functional. Further details: scale not given: the % may be the effect or the level left.
For assay [29], the system named is MHCC97H. Nature of the assay: Inhibition of mitochondrial function in human MHCC97H cells assessed as reduction in ATP production at 16 uM incubated for 48 hrs relative to control. Further details: scale not given: the % may be the effect or the level left. In kind it is functional.
The subject of assay [30] is Huh-7. Nature of the assay: Inhibition of mitochondrial function in human Huh-7 cells assessed as reduction in ATP production at 16 uM incubated for 48 hrs relative to control. In kind it is functional. Also on record: scale not given: the % may be the effect or the level left.

On to `CCCCCCCCCC[C@@H](O)[C@H](O)C[C@@H](O)[C@H]1CC[C@H](CCCCCCCCCC[C@@H](O)CC2=C[C@H](C)OC2=O)O1`, for which the IC50 in assay [1], in assay [4], in assay [6] and in assay [7] was over 50 µM in each case. Further, the Activity in [2], in assay [3], in assay [5] and in assay [8] was 2.7 in each case. In addition, in [9], the inhibition entry is “Active”.
On to `CCCCCCCCCCCC[C@@H](O)[C@H]1CC[C@H]([C@H](O)CCCC(O)CCCCCC[C@@H](O)CC2=C[C@H](C)OC2=O)O1` (some centres undefined), for which the IC50 in assay [1], in assay [4], in [6] and in assay [7] was 10 µM each time. For the same compound, the Activity in [2], in assay [3], in [5] and in assay [8] was 2 in each case. Further, in assay [9], the inhibition result is “Active”.
In the case of `CCCCCCCCCCCC[C@H](O)[C@@H]1CC[C@H]([C@H](O)CCCC[C@@H](O)CCCCC[C@@H](O)CC2=C[C@H](C)OC2=O)O1`, the concentration for half-maximal inhibition (IC50) in assay [1], in assay [4], in assay [6] and in assay [7] was 7.1 µM throughout. Besides, the Activity in [2], in assay [3], in assay [5] and in assay [8] was 2.3 throughout. Moreover, the inhibition entry in assay [9] is “Active”.
Take `CCCCCCCCCCCC[C@H](O)[C@@H]1CC[C@H]([C@H](O)CCCCC(=O)CCCCC[C@@H](O)CC2=C[C@H](C)OC2=O)O1`: the half-maximal inhibitory concentration (IC50) in assay [1], in assay [4], in assay [6] and in assay [7] was 15 µM throughout. Besides, the Activity in assay [2], in [3], in [5] and in [8] was 0.7 throughout. Moreover, in assay [9], the inhibition result was “Active”.
Turning to `CCCCCCCCCC[C@H](O)[C@@H](O)C[C@H](O)[C@@H]1CC[C@@H](CCCCCCCCCC[C@@H](O)CC2=C[C@H](C)OC2=O)O1`, the IC50 in assay [1], in [4], in assay [6] and in assay [7] was over 50 µM each time. Further, the Activity stood at 8.66% in assay [10]; 1.36% in [12]; 3.7 in assay [2]; 7.1 in assay [3]; 6.45% in assay [14]; 1.27% in [16]. Besides, the Activity in assay [17] turned out to be 11.6%; in [5] it was 13.9; in assay [8] it was 17; in assay [25], 4.44%; in assay [26], 0.17%. The values for the viability at 4 µM in [11] and in assay [22] were 97.2% and 80.5%, respectively. In addition, the inhibition entry in [13], in assay [15], in [18], in assay [19], in [21] and in [23] was “Active” each time. In addition, the inhibition result in assay [24] and in assay [9] was “Active” throughout. The outcome in assay [20] was Active.
On to `CCCCCCCCCCCC[C@@H](O)[C@H]1CC[C@H]([C@H](O)CCCCC(=O)CCCCC[C@@H](O)CC2=C[C@H](C)OC2=O)O1` [ANNONACINONE], for which the IC50 in [1], in assay [4], in [6] and in assay [7] was 15.5 µM throughout. The Activity in assay [2], in assay [3], in assay [5] and in assay [8] was 3.4 in each case. Moreover, the inhibition entry in assay [9] is “Active”.
For `CNC(=O)c1cc(Oc2ccc(NC(=O)Nc3ccc(Cl)c(C(F)(F)F)c3)cc2)ccn1` [SORAFENIB], the Activity was 69.5% in [27]; 1.57% in assay [12]; 77.4% in assay [28]; 54.4% in assay [29]; 3.59% in assay [16]; 41.1% in assay [30]. Further, the Activity in [26] is 0.67%. Further, the viability at 4 µM in assay [11] was determined as 94.2%.

A word on the IC50: it is the concentration that inhibits the measured activity by half.
